Reference: EPA's CvTdb concentration-time database

Key:
Assay in all cases: concentration in plasma after dosing
[1] = tested on: Rat; conditions: dosed: Phenolphthalein, 25 mg/kg, iv, F344
[2] = tested on: Rat; conditions: 12 h; dosed: Phenolphthalein; 25 mg/kg; iv; Female; F344
[3] = tested on: Rat; conditions: dosed: Phenolphthalein, 25 mg/kg, iv, Male, F344
[4] = tested on: Rat; conditions: dosed: Phenolphthalein, 25 mg/kg, iv, Male, F344; remark: listed apart in the source
[5] = tested on: Rat; conditions: 16 h; dosed: Phenolphthalein; 25 mg/kg; iv; Female; F344
[6] = tested on: Rat; conditions: dosed: Phenolphthalein, 25 mg/kg, iv, Female, F344
[7] = tested on: Rat; conditions: dosed: Phenolphthalein, 25 mg/kg, iv, Female, F344; remark: listed apart in the source
[8] = tested on: Rat; conditions: dosed: Phenolphthalein, 25 mg/kg, iv, Female, F344; remark: listed apart in the source
[9] = tested on: Rat; conditions: dosed: Phenolphthalein, 25 mg/kg, iv, Male, F344; remark: listed apart in the source
[10] = tested on: Rat; conditions: dosed: Phenolphthalein, 25 mg/kg, iv, Female, F344; remark: listed apart in the source
[11] = tested on: Rat; conditions: 16 h; dosed: Phenolphthalein; 25 mg/kg; iv; Female; F344; remark: listed apart in the source
[12] = tested on: Rat; conditions: dosed: Phenolphthalein, 25 mg/kg, iv, Male, F344; remark: listed apart in the source
[13] = tested on: Rat; conditions: dosed: Phenolphthalein, 25 mg/kg, iv, Female, F344; remark: listed apart in the source
[14] = tested on: Rat; conditions: 16 h; dosed: Phenolphthalein; 25 mg/kg; iv; Male; F344
[15] = tested on: Rat; conditions: dosed: Phenolphthalein, 25 mg/kg, iv, Female, F344; remark: listed apart in the source
[16] = tested on: Rat; conditions: dosed: Phenolphthalein, 25 mg/kg, iv, Female, F344; remark: listed apart in the source
[17] = tested on: Rat; conditions: dosed: Phenolphthalein, 25 mg/kg, iv, Female, F344; remark: listed apart in the source
[18] = tested on: Rat; conditions: dosed: Phenolphthalein, 25 mg/kg, iv, Female, F344; remark: listed apart in the source
[19] = tested on: Rat; conditions: dosed: Phenolphthalein, 25 mg/kg, iv, Male, F344; remark: listed apart in the source
[20] = tested on: Rat; conditions: dosed: Phenolphthalein, 25 mg/kg, iv, Female, F344; remark: listed apart in the source
[21] = tested on: Rat; conditions: dosed: Phenolphthalein, 25 mg/kg, iv, Male, F344; remark: listed apart in the source
[22] = tested on: Rat; conditions: 16 h; dosed: Phenolphthalein; 25 mg/kg; iv; Male; F344; remark: listed apart in the source
[23] = tested on: Rat; conditions: dosed: Phenolphthalein, 25 mg/kg, iv, Female, F344; remark: listed apart in the source
[24] = tested on: Rat; conditions: dosed: Phenolphthalein, 25 mg/kg, iv, Male, F344; remark: listed apart in the source
[25] = tested on: Rat; conditions: dosed: Phenolphthalein, 25 mg/kg, iv, Male, F344; remark: listed apart in the source
[26] = tested on: Rat; conditions: dosed: Phenolphthalein, 25 mg/kg, iv, Male, F344; remark: listed apart in the source
[27] = tested on: Rat; conditions: dosed: Phenolphthalein, 25 mg/kg, iv, Male, F344; remark: listed apart in the source
[28] = tested on: Rat; conditions: dosed: Phenolphthalein, 25 mg/kg, iv, Female, F344; remark: listed apart in the source
[29] = tested on: Rat; conditions: dosed: Phenolphthalein, 25 mg/kg, iv, Female, F344; remark: listed apart in the source
[30] = tested on: Rat; conditions: dosed: Phenolphthalein, 25 mg/kg, iv, Male, F344; remark: listed apart in the source
[31] = tested on: Rat; conditions: dosed: Phenolphthalein, 25 mg/kg, iv, Male, F344; remark: listed apart in the source
[32] = tested on: Rat; conditions: dosed: Phenolphthalein, 25 mg/kg, iv, Male, F344; remark: listed apart in the source

O=C1OC(c2ccc(O)cc2)(c2ccc(O[C@@H]3O[C@H](C(=O)O)[C@@H](O)[C@H](O)[C@H]3O)cc2)c2ccccc21 (some centres undefined) [Phenolphthalein glucuronide]
[1], Male
Conditions	concentration in plasma [ng/mL]
2.5 min	6980
20 h	8900

O=C1OC(c2ccc(O)cc2)(c2ccc(O[C@@H]3O[C@H](C(=O)O)[C@@H](O)[C@H](O)[C@H]3O)cc2)c2ccccc21 (some centres undefined) [Phenolphthalein Glucuronide]
concentration in plasma [ng/mL], [1]
Conditions	Female	Male
1 h	6220	13200
2 h	22800	1490
2.5 min	26600	4740
3 h	47900	7190
4 h	50600	4000
5 h	17900	2270
5 min	49000	22300
6 h	18700	11800
7 h	35300	4350
8 h	16900	3650
10 h	11900	5440
12 h	24900	8240
16 h	8190	9210
20 h	16200	8080
24 h	9270	6210

Conditions	concentration in plasma [ng/mL]
[2]	14800
[5]	21500
[11]	8150
[14]	7180
[22]	37500

Conditions	concentration in plasma [ng/mL]
[3], 3 h	32000
[3], 12 h	10500
[4], 2.5 min	2320
[4], 20 h	8550
[6], 2 h	16300
[6], 8 h	22700
[7], 2.5 min	10400
[7], 20 h	8670
[8], 4 h	18400
[8], 7 h	19500
[9], 1 h	19000
[9], 6 h	35900
[10], 5 h	16900
[10], 10 h	13300
[12], 4 h	23300
[12], 7 h	13100
[13], 4 h	14000
[13], 7 h	13700
[15], 3 h	39000
[15], 12 h	18000
[16], 5 min	3250
[16], 24 h	5140
[17], 2.5 min	15100
[17], 20 h	9500
[18], 5 h	16500
[18], 10 h	11300
[19], 4 h	8240
[19], 7 h	14400
[20], 1 h	9080
[20], 6 h	15200
[21], 2 h	7950
[21], 8 h	9110
[23], 5 min	69000
[23], 24 h	14700
[24], 5 min	21100
[24], 24 h	5330
[25], 5 min	23700
[25], 24 h	6100
[26], 5 h	10900
[26], 10 h	10700
[27], 3 h	6590
[27], 12 h	17300
[28], 2 h	14600
[28], 8 h	17000
[29], 1 h	22300
[29], 6 h	8560
[30], 5 h	8040
[30], 10 h	11300
[31], 2 h	22600
[31], 8 h	18600
[32], 1 h	18700
[32], 6 h	10700
